{"source": "paper PMC4201470", "about": "“THDP17 Decreases Ammonia Production through Glutaminase Inhibition. A New Drug for Hepatic Encephalopathy Therapy” (PLoS ONE, 2014)", "key": {"PAG [1]": {"biological_target": "T1, PAG (Rattus norvegicus, UniProt P13264)", "T1 sequence (P13264 55-674)": "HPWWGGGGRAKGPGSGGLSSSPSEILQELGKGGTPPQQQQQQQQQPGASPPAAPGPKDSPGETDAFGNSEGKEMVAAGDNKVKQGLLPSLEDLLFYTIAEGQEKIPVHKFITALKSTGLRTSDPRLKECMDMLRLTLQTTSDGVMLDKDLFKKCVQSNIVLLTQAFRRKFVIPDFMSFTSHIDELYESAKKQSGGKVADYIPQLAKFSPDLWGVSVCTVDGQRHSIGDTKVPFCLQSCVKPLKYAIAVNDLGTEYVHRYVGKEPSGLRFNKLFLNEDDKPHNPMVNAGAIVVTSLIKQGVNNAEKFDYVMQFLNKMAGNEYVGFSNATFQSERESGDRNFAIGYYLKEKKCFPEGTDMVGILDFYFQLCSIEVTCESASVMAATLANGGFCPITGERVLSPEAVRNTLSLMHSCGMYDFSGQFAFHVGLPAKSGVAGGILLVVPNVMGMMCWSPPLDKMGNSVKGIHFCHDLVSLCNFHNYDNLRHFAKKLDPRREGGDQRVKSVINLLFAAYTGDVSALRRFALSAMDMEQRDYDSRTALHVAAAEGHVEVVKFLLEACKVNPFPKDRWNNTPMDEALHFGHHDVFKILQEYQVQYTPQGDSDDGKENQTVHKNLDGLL", "assay": "In vitro PAG inhibition by drugs used in HE therapy", "type": "biochemical", "details": "for effect on PAG activity in vitro: 10 mM", "protocol": "(§1) PAG inhibition analysis by different thiourea derivatives (THDP) was assayed in vitro, using the method of Heini for glutaminase activity determination, adapted to a microtiter procedure. This assay is based on the use of o-phthaldialdehyde/mercaptoethanol as a reagent for estimating ammonia released from glutamine. Briefly, 25 µl samples were added to 35 µl of a mixture of 150 mM potassium phosphate, 171 mM glutamine, 1 mM ammonium chloride, pH 8.0 and then incubated at 37°C for 45 min. The reaction was stopped by adding 10 µl 7% trichloroacetic acid, kept on ice for 15 min and centrifuged 5 min at 1000 × g. Aliquots of 5 µl/well were then mixed with 150 µl o-phthalaldehyde/mercaptoethanol reagent (14.4 ml 200 mM potassium phosphate, pH 7.4, 0.8 ml 72 mM mercaptoethanol in ethanol and 0.8 ml 186 mM o-phthaldialdehyde in ethanol). The samples were kept at room temperature in the dark and absorbance measured at 410 nm with a UV-Visible spectrophotometer (BioRad) after 45 min.\nPAG activity inhibition was analyzed using 10 mM concentration. PAG activity in vitro was no affected by neomycin, lactitol and lactulose, rather, an increased activity was observed."}, "[2]": {"test_system": "glutaminase activity in Caco2 cells", "assay": "Glutaminase inhibition by metformin in Caco2 cells", "type": "cell-based", "method": "6-Diazo-5-oxo-L-norleucine (DON) (0–100 µM) was used as positive control."}, "Caco-2 cells": {"test_system": "Caco-2 cells", "assay": "Cytotoxicity assay in Caco-2 cells after 24 h exposure", "type": "cell-based", "details": "Caco-2, 24 h exposure", "protocol": "Regression analysis of dose-response curves and calculation of IC50 were done according to standard procedure using appropriated software.\nAcute toxicity test in animals is typically the first step in the evaluation of the effects of a chemical compound, and its primary purpose is to provide information on potential health hazards that may result from a short-term exposure. […] In the present work, cytotoxicity of a 24 h-exposure to selected inhibitors was evaluated in Caco-2 cells using the MTT method developed by Mosmann and modified by Denizot and Lang."}, "[3]": {"test_system": "glutaminase activity (PAG) in Caco-2 cells", "assay": "Inhibition assay in cell culture (glutamate produced from glutamine, HPLC)", "type": "cell-based", "source_text": "Results are shown on Figure 4."}, "[4]": {"biological_target": "T2, glutaminase obtained from both kidney and intestine mitochondria (K-PAG) (Rattus norvegicus, UniProt P13264)", "T2 construct": "an enriched preparation of glutaminase obtained from both kidney and intestine mitochondria; from tissue; host or cells: rat kidney and intestine mitochondria, solubilised with 1% Triton X-100", "T2 sequence (P13264 55-674)": "T1 sequence (P13264 55-674)", "assay": "In vitro inhibition screening of glutaminase activity (Heini method, ammonia released from glutamine)", "type": "biochemical", "protocol": "as §1, with “Aliquots of 5 µl/well were then mixed with 150 µl o-phthalaldehyde/mercaptoethanol reagent (14.4 ml 200 mM potassium phosphate, pH 7.4, 0.8 ml 72 mM mercaptoethanol in ethanol and 0.8 ml 186 mM o-phthaldialdehyde in ethanol).” left out\n(§2) K-PAG activity was assayed, in presence and absence of the inhibitor; using isolated mitochondria from rat intestine and kidney, solubilized with 1% Triton X-100 as a source of glutaminase. Enzymatic activity was measured using a two-step assay as described by Lund. Protein concentration was determined following Bradford method using serum albumin as standard.\nThe first group analysed in this work is integrated by a small molecule compounds library derived from thiourea. […]"}, "C57BL/6 mice [5]": {"test_system": "C57BL/6 mice", "assay": "Acute toxicity, oral administration to mice with free access to food and water", "type": "in vivo", "details": "for Deaths before 6 h / Deaths before 12 h / Deaths before 24 h: N=4", "protocol": "(§3) Lethal dose was determined by oral administration of the compounds to C57BL/6 mice. Thirty mice were supplied by the Centre of Production and Experimental animal of Espartinas, University of Seville, Spain. The animals were housed ten per cage, and maintained at constant room temperature (22°C ±2°C), with artificial light-dark cycle of 12 h and a relative humidity of 65%−70%, and free access to food and water during 2 weeks for acclimation. All animal procedures were performed with approval from the Sevilla University Animal Ethics Committees, under the guidelines of the directive 86/609/CEE of the European Union. Two assays in different conditions were performed. […] They were sacrificed 24 h latter and a macroscopic analysis of the tissues (lungs, heart, liver, stomach and intestine) was performed. […] In this case, mice were sacrificed 24 or 72 h latter and the same macroscopic analysis was performed.\n(§4) The undiluted compound has low systemic toxicity but a marked local necrotizing and inflammatory effect when it is administered orally. […] There were few fluctuations in histopathological values but no changes appear to be drug-related or of significance. […] Therefore, we repeat the assay using feed animals."}, "[6]": {"test_system": "swine K-PAG (from kidney)", "assay": "In vitro optimised kinetic assay with increasing inhibitor concentrations", "type": "biochemical", "protocol": "as §2\nFirst, increasing concentration of inhibitors (ranging from 1 µM to 10 mM) were added to standard and optimized enzymatic assay conditions with 99 mmol/l glutamine, 150 mmol/l phosphate and 100 µg K-PAG (Figure 1)."}, "C57BL/6 mice [7]": {"test_system": "C57BL/6 mice", "assay": "Acute toxicity, oral administration to 12 h fasted mice", "type": "in vivo", "details": "for Deaths before 6 h / Deaths before 12 h: oral, N=3", "protocol": "as §3, §4"}, "PAG [8]": {"test_system": "PAG", "assay": "PAG kinetic parameters in absence and presence of THDP-17 (double reciprocal plot)", "type": "biochemical, swine", "protocol": "as §2\nFigure 3 THDP17 inhibition kinetics. A lineal double reciprocal plot (1/v against 1/[Gln]) in absence (0) and presence (10 µM) of the inhibitor is shown. […] All experiments were performed in triplicates; p>0.05."}, "[9]": {"details": "fed mice, oral, 50 mg/Kg in DMSO"}, "[10]": {"details": "fed mice, oral, 300 mg/Kg in DMSO"}}, "note": "“Also recorded” adds a separate entry of the source. Marks after values point to notes of the source that are not given here."}
{"molecule": "OC[C@H]1O[C@@H](O[C@@H]2[C@@H](CO)OC(O)(CO)[C@H]2O)[C@H](O)[C@@H](O)[C@H]1O", "note": "(mixture of isomers) [lactulose]", "values": [{"measurement": "effect on PAG activity in vitro", "setting": "PAG [1]", "value": "no affected"}]}
{"molecule": "OC[C@@H](O)[C@@H](O[C@@H]1O[C@H](CO)[C@H](O)[C@H](O)[C@H]1O)[C@H](O)[C@@H](O)CO", "note": "[lactitol]", "values": [{"measurement": "effect on PAG activity in vitro", "setting": "PAG [1]", "value": "no affected"}]}
{"molecule": "CN(C)C(=N)N=C(N)N", "note": "[metformin]", "values": [{"measurement": "inhibition kinetics", "setting": "PAG [1]; Dixon plot", "value": "competitive inhibition kinetics"}, {"measurement": "inhibition at 10000 µM", "setting": "PAG [1]; read-out: PAG inhibition", "value": 17.5, "unit": "%"}, {"measurement": "inhibition at 100000 µM", "setting": "PAG [1]; read-out: PAG inhibition", "value": 68, "unit": "%"}, {"measurement": "inhibition rates at higher concentrations", "setting": "[2]; Caco2, 50, 100 and 200 mM", "value": "did not yield higher inhibition rates"}, {"measurement": "inhibition at 20000 µM", "setting": "[2]; Homo sapiens, Caco-2, 72 h", "value": 24, "unit": "%"}]}
{"molecule": "N-(3-methyl-3-butenyl)-N′-phenylthiourea [THDP-17]", "values": [{"measurement": "cytotoxicity (cell viability)", "setting": "Caco-2 cells", "value": "did not show cytotoxicity"}, {"measurement": "concentration at which PAG inhibition in cell cultures is effective", "setting": "[3]; Caco-2", "value": "higher than 5 µM"}, {"measurement": "PAG inhibition in cell cultures", "setting": "[3]; Caco-2, 20 µM", "value": "18±2.1", "unit": "%"}, {"measurement": "PAG inhibition in cell cultures", "setting": "[3]; Caco-2, 100 µM", "value": "46±3.4", "unit": "%"}, {"measurement": "inhibition of intestinal glutaminase activity", "setting": "[4]; THDP-17 10 µM", "value": "57.4±6.7", "unit": "%"}, {"measurement": "inhibition of K-PAG activity (screening result)", "setting": "[4]; thiourea library screening", "value": "could inhibit K-PAG activity"}, {"measurement": "deaths during the experimental period", "setting": "C57BL/6 mice [5]; fed mice", "value": "no deaths were observed"}, {"measurement": "macroscopic organs analysis", "setting": "C57BL/6 mice [5]; fed mice sacrificed at 24 and 72 h, less pronounced than in fasted group", "value": "gastrointestinal ulcers and duodenum bleeding"}, {"measurement": "Deaths before 6 h", "setting": "C57BL/6 mice [5]; [9]", "value": 0}, {"measurement": "Deaths before 12 h", "setting": "C57BL/6 mice [5]; [9]", "value": 0}, {"measurement": "Deaths before 24 h", "setting": "C57BL/6 mice [5]; [9]", "value": 0}, {"measurement": "Deaths before 12 h", "setting": "C57BL/6 mice [5]; [10]", "value": 0}, {"measurement": "Deaths before 24 h", "setting": "C57BL/6 mice [5]; [10]", "value": 0}, {"measurement": "Deaths before 6 h", "setting": "C57BL/6 mice [5]; fed mice, oral, 300 mg/Kg in DMSO, animal without water", "value": "1 ^*"}, {"measurement": "toxicity in vivo (conclusion)", "setting": "C57BL/6 mice [5]; mice, oral", "value": "no toxic in vivo"}, {"measurement": "IC50", "setting": "[6]; 99 mmol/l glutamine, 150 mmol/l phosphate, 100 µg K-PAG", "value": "3.9 ± 0.1", "unit": "µM"}, {"measurement": "extent of PAG inhibition at low milimolar concentrations", "setting": "[6]; low milimolar concentrations, plateau", "value": "inhibits PAG activity partially"}, {"measurement": "macroscopic findings in the gastrointestinal tract", "setting": "C57BL/6 mice [7]; also seen with DMSO vehicle alone", "value": "gastrointestinal ulcers and duodenum bleeding"}, {"measurement": "histopathological damages in lungs, heart or liver", "setting": "C57BL/6 mice [7]; compared to DMSO alone", "value": "No essential or histopathological damages"}, {"measurement": "Deaths before 6 h", "setting": "C57BL/6 mice [7]; 50 mg/Kg in DMSO", "value": 1}, {"measurement": "Deaths before 12 h", "setting": "C57BL/6 mice [7]; 50 mg/Kg in DMSO", "value": 1}, {"measurement": "Deaths before 6 h", "setting": "C57BL/6 mice [7]; 300 mg/Kg in DMSO", "value": 1}, {"measurement": "Deaths before 12 h", "setting": "C57BL/6 mice [7]; 300 mg/Kg in DMSO", "value": 1}, {"measurement": "Deaths before 6 h", "setting": "C57BL/6 mice [7]; 2000 mg/Kg in DMSO", "value": 2}, {"measurement": "Deaths before 12 h", "setting": "C57BL/6 mice [7]; 2000 mg/Kg in DMSO", "value": 1}, {"measurement": "inhibition model", "setting": "PAG [8]; double reciprocal plot", "value": "not-pure-uncompetitive inhibitor; also recorded: uncompetitive inhibition"}, {"measurement": "Vmax", "setting": "PAG [8]; with THDP-17 10 µM", "value": 384.62, "unit": "µmol/min"}, {"measurement": "Vmax-ap", "setting": "PAG [8]; with THDP-17 10 µM, without inhibitor 0.67 mmol min^-1", "value": 0.38, "unit": "mmol/min"}]}
{"molecule": "neomycin", "values": [{"measurement": "effect on PAG activity in vitro", "setting": "PAG [1]", "value": "no affected"}]}
